Literature values in patent US20230066280A1, “DRUG ELUTING BIOMATERIALS” (UCL BUSINESS LTD, priority 2020, published 2023).

Experiments:
[1] = tested on: Rho; details: SY5YAPP, HEK 293 and PC12 cells (ref 30)

| initial loaded drug released within 24 hours (ibuprofen from EVA, previous study (ref 24)) | release rate of ibuprofen from MSN (mesoporous silica nanoparticles, previous studies (ref 20)) | SMILES | levels of active Rho-GTP [1] |
| --- | --- | --- | --- |
| 50% | 96.3% | CC(C)Cc1ccc(C(C)C(=O)O)cc1 (stereo not drawn) [ibuprofen] | – |
| – | – | CSc1ccc(/C=C2/C(C)=C(CC(=O)O)c3cc(F)ccc32)cc1 [sulindac sulfide] | reduced |
